From patent publication US8039009B2, “Modified release formulations of memantine oral dosage forms” (priority 2004, dated 2011)

Experiment: Powder testing of final blends for compression (flow and compression properties)
Type: physicochemical
Experimental: The powder properties of the final blends for compression were evaluated. During compression, excellent powder flow through the hopper was visually observed. The following Table presents the results of powder testing.

Compound: CC12CC3CC(C)(C1)CC(N)(C3)C2 [memantine, 1-amino-3,5-dimethyladamantane]
- flow and compression properties (in words): poor flow properties
- Flowability Index (powder): 23.5
